According to US20200345725A1, “Methods and Compositions for Treating Cancer” (Omeros Corporation, priority 2019, published 2020):
Values joined by “and” are separate entries in the source; they are usually repeats but may differ in a detail not shown here. Equal entries are not always repeated. “Also recorded” adds a separate entry of the source.

Molecular target: GPR174 (Homo sapiens, UniProt Q9BXC1)
Assay: CRE-Luc reporter Gs signaling assay with GPR174
Type: cell-based
Parameters: host or cells: HEK293 or CHO cell lines (ATCC)
Details: pCRE-Luc reporter; for EC50: multiple values = separate experiments

GPR174, sequence (Q9BXC1 whole entry): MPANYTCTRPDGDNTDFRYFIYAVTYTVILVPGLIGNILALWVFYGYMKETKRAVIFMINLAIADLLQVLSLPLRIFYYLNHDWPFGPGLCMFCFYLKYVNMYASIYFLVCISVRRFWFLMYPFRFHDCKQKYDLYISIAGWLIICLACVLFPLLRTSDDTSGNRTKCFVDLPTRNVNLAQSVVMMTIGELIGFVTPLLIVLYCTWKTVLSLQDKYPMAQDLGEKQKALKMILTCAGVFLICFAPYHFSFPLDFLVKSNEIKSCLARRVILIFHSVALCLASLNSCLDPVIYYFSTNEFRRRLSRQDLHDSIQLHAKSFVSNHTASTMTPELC

Fold decrease in Gs signaling activity [fold]	EC50	SMILES	Human GPR174 CRE Activity: nature of the compound (IA, antagonist, NM)
7	2000 nM	CCc1ccc(C2C3=C(CCCC3=O)NC3=C2C(=O)c2ccccc23)cn1 (stereo not drawn) [compound 54]	
2.8	5400 nM	O=C1CCCC2=C1C(c1cccnc1)C1=C(N2)c2ccccc2C1=O (stereo not drawn) [compound 37]	
7.6	1000 nM	O=C1CCCC2=C1C(c1ccc(OC3CCCC3)cc1)C1=C(N2)c2ccccc2C1=O (stereo not drawn) [compound 45]	
8.1	1200 nM	O=C1CCCC2=C1C(c1ccc(OC(F)F)cc1)C1=C(N2)c2ccccc2C1=O (stereo not drawn) [compound 46]	
5	1200 nM	O=C1CCCC2=C1C(c1ccc(OC(F)(F)F)cc1)C1=C(N2)c2ccccc2C1=O (stereo not drawn) [compound 48]	
7.1	1000 nM	O=C1CCCC2=C1C(c1ccc(Oc3ccccc3)cc1)C1=C(N2)c2ccccc2C1=O (stereo not drawn) [compound 47]	
2.8	4300 nM	O=C1CCCC2=C1C(c1ccc(F)cc1)C1=C(N2)c2ccccc2C1=O (stereo not drawn) [compound 35]	
8.4	2800 nM	Cc1nnc(-c2ccc(C3C4=C(CCCC4=O)NC4=C3C(=O)c3ccccc34)cc2)o1 (stereo not drawn) [compound 34]	
5.3	1200 nM	CC(C)c1ccc(C2C3=C(CCCC3=O)NC3=C2C(=O)c2ccccc23)cc1 (stereo not drawn) [compound 29]	
3.9	2500 nM	O=C1CCCC2=C1C(c1ccc(-c3ccccc3)cc1)C1=C(N2)c2ccccc2C1=O (stereo not drawn) [compound 32]	

More lines, now with the values behind:

SMILES	Fold decrease in Gs signaling activity [fold]	EC50	Human GPR174 CRE Activity: nature of the compound (IA, antagonist, NM)
O=C1CCCC2=C1C(c1ccccc1)C1=C(N2)c2ccccc2C1=O (stereo not drawn) [compound 25]	4.2	4600 nM	
CC(C)C(=O)N1CCN(c2cc(N3CCCCC3C)c(F)cc2[N+](=O)[O-])CC1 (stereo not drawn) [compound 16]	2.1	800 nM	
CCOC(=O)N1CCN(c2cc(N3CCCCC3C)c(F)cc2[N+](=O)[O-])CC1 (stereo not drawn) [compound 18]	1.9	1000 nM	
COc1cc(C2C3=C(CCCC3=O)NC3=C2C(=O)c2ccccc23)ccc1O (stereo not drawn) [compound 26]	1.7	3600 nM	
Cc1cc(C(=O)N/N=C/c2cc(Br)ccc2O)c(C)o1 [compound 58]			GPR174 antagonists or allosteric modulators; also recorded: Antagonist or allosteric modulator
CCC(=O)N1CCN(c2cc(N3CCC(C)CC3)c(F)cc2[N+](=O)[O-])CC1 [compound 8]	3.3	700 nM and 400 nM	
Cc1ccc(S(=O)(=O)N2CCN(c3cc(N4CCCCC4)c(F)cc3[N+](=O)[O-])CC2)cc1 [compound 15]	2.6	1700 nM	
